By IC50 is commonly meant the concentration at which inhibition is half-maximal.

Assay [1] deals with human JAK1 (aa 850-1154) (Homo sapiens, UniProt P23458). In words: In vitro JAK kinase assay (TR-FRET), JAK1. (Time-resolved FRET reads energy transfer from a long-lived donor to a nearby acceptor.)
Procedure: (§1) The enzymatic activity was assayed using as substrate a biotinylated peptide, poly (GT)-Biotin (CisBio). […] The degree of phosphorylation was detected by TR-FRET (time-resolved fluorescence energy transfer). […] The enzymatic reactions took place for 30 minutes at room temperature. […] Incubate for 3 h and read on Victor 2V spectrofluorometer (PerkinElmer) set to read fluorescence resonance energy transfer.
Assay [2] has as its target human JAK2 (aa 826-1132) (Homo sapiens, UniProt O60674). In words: In vitro JAK kinase assay (TR-FRET), JAK2.
Procedure: as §1
In assay [3] the target is human JAK3 (aa 795-1124) (Homo sapiens, UniProt P52333). Put plainly: In vitro JAK kinase assay (TR-FRET), JAK3.
Sequence of human JAK3 (aa 795-1124) (P52333 795-1124): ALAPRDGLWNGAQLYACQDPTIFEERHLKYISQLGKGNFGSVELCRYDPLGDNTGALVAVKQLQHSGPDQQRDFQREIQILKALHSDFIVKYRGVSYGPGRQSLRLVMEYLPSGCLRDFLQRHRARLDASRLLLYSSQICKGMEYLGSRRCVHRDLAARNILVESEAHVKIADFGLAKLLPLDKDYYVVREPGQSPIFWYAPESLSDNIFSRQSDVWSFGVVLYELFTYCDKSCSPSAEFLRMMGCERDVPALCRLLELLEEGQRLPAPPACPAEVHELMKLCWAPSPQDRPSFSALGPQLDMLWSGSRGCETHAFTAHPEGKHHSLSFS
Procedure: as §1

Sequence of human JAK2 (aa 826-1132) (O60674 826-1132): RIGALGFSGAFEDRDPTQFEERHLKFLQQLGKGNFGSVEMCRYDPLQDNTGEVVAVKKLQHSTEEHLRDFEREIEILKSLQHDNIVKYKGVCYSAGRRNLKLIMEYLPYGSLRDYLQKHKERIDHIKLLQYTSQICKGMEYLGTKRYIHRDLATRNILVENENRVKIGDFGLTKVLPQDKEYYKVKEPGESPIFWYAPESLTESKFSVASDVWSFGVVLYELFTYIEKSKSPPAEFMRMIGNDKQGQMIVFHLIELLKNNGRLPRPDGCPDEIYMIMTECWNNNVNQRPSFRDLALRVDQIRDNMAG
Sequence of human JAK1 (aa 850-1154) (P23458 850-1154): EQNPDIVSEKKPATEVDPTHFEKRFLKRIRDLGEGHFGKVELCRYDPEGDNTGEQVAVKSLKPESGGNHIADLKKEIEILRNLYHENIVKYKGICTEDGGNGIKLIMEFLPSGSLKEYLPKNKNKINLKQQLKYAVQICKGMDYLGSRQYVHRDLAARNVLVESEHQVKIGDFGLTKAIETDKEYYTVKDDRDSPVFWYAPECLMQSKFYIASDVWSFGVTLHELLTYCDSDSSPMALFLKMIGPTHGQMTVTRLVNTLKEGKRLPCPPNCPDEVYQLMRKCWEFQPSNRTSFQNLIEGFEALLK

In assay [1], `C[C@@H]1CCCC[C@@H]1n1c(=O)[nH]c2cnc(-c3cnc4ccc(C#N)cn34)nc21` [Example 3, 3-(9-((1S,2R)-2-Methylcyclohexyl)-8-oxo-8,9-dihydro-7H-purin-2-yl)imidazo[1,2-a]pyridine-6-carbonitrile] came in with an IC50 of 100 to 1000 nM.

With `O=c1[nH]c2cnc(-c3cnc4ccc(F)cn34)nc2n1[C@H](CO)c1ccc(F)cn1` [Example 35, (S)-2-(6-Fluoroimidazo[1,2-a]pyridin-3-yl)-9-(1-(5-fluoropyridin-2-yl)-2-hydroxyethyl)-7H-purin-8(9H)-one], the values for the IC50 in assay [2], in assay [1] and in assay [3] were < 100 nM, 100 to 1000 nM and 100 to 1000 nM, respectively.

Turning to `N#CC1(n2c(=O)[nH]c3cnc(-c4cnc5ccc(F)cn45)nc32)CCCCC1` [Example 36, 1-(2-(6-Fluoroimidazo[1,2-a]pyridin-3-yl)-8-oxo-7H-purin-9(8H)-yl)cyclohexane carbonitrile], the IC50 was < 100 nM in assay [2], > 1000 nM in assay [1] and 100 to 1000 nM in assay [3].

In the case of `CC1(C)CC(n2c(=O)[nH]c3cnc(-c4cnc5ccc(F)cn45)nc32)c2cccnc2O1` (stereo not shown) [Example 42, 9-(2,2-Dimethyl-3,4-dihydro-2H-pyrano[2,3-b]pyridin-4-yl)-2-(6-fluoroimidazo[1,2-a]pyridin-3-yl)-7H-purin-8(9H)-one], the concentration for half-maximal inhibition (IC50) in assay [2] is 100 to 1000 nM; in assay [1], > 1000 nM; in assay [3], 100 to 1000 nM.

With `C[C@H](CC(N)=O)n1c(=O)[nH]c2cnc(-c3cnc4ccc(F)cn34)nc21` [Example 58, (R)-3-(2-(6-Fluoroimidazo[1,2-a]pyridin-3-yl)-8-oxo-7H-purin-9(8H)-yl)butanamide], the values for the IC50 in assay [2], in assay [1] and in assay [3] were 100 to 1000 nM, > 1000 nM and 100 to 1000 nM, respectively.

As to `CS(=O)(=O)N1CCC[C@@H](n2c(=O)[nH]c3cnc(-c4cnc5ccc(F)cn45)nc32)C1` [Example 62, 2-(6-Fluoroimidazo[1,2-a]pyridin-3-yl)-9-[(3R)-1-(methylsulfonyl)piperidin-3-yl]-7,9-dihydro-8H-purin-8-one], the results for the IC50 in assay [2], in assay [1] and in assay [3] were < 100 nM, > 1000 nM and 100 to 1000 nM, respectively.

As to `CS(=O)(=O)N1CCC(n2c(=O)[nH]c3ccc(-c4cnc5ccc(F)cn45)nc32)CC1` [Example 71, 5-(6-Fluoroimidazo[1,2-a]pyridin-3-yl)-3-[1-(methylsulfonyl)piperidin-4-yl]-1,3-dihydro-2H-imidazo[4,5-b]pyridin-2-one], the IC50 in assay [2] is < 100 nM; in assay [1], > 1000 nM; in assay [3], < 100 nM.

Take `O=c1[nH]c2cc(F)c(-c3cnc4ccc(F)cn34)nc2n1C1CCOCC1` [Example 73, 6-Fluoro-5-(6-fluoroimidazo[1,2-a]pyridin-3-yl)-3-(tetrahydro-2H-pyran-4-yl)-1,3-dihydro-2H-imidazo[4,5-b]pyridin-2-one]: the IC50 was < 100 nM in assay [2], 100 to 1000 nM in assay [1] and < 100 nM in assay [3].

Consider `C[C@H](c1ccc(F)cn1)n1c(=O)[nH]c2cnc(-c3cnn4ccncc34)nc21` [Example 79, (R)-9-(1-(5-Fluoropyridin-2-yl)ethyl)-2-(pyrazolo[1,5-a]pyrazin-3-yl)-7H-purin-8(9H)-one], for which the IC50 in assay [2], in assay [1] and in assay [3] was < 100 nM throughout.

Regarding `O=c1[nH]c2cnc(-c3cnn4ccncc34)nc2n1CC1CCOCC1` [Example 80, 2-(Pyrazolo[1,5-a]pyrazin-3-yl)-9-((tetrahydro-2H-pyran-4-yl)methyl)-7H-purin-8(9H)-one], the concentration for half-maximal inhibition (IC50) in assay [2], in assay [1] and in assay [3] was 100 to 1000 nM in each case.

Regarding `O=c1[nH]c2cnc(-c3cnn4ccncc34)nc2n1C1CCC(F)(F)CC1` [Example 81, 9-(4,4-Difluorocyclohexyl)-2-(pyrazolo[1,5-a]pyrazin-3-yl)-7H-purin-8(9H)-one], the IC50 in assay [2], in assay [1] and in assay [3] was < 100 nM throughout.

`O=c1[nH]c2cnc(-c3cnn4cc(F)ccc34)nc2n1C1CCOCC1` [Example 89, 2-(6-Fluoropyrazolo[1,5-a]pyridin-3-yl)-9-(tetrahydro-2H-pyran-4-yl)-7H-purin-8(9H)-one]: the half-maximal inhibitory concentration (IC50) in assay [2] was < 100 nM; in assay [1] it was > 1000 nM; in assay [3], < 100 nM.

In the case of `O=c1[nH]c2cnc(-c3cnn4cccnc34)cc2n1C1CCOCC1` [Example 92, 6-(Pyrazolo[1,5-a]pyrimidin-3-yl)-1-(tetrahydro-2H-pyran-4-yl)-1H-imidazo[4,5-c]pyridin-2(3H)-one], the figures for the IC50 in assay [2], in assay [1] and in assay [3] were < 100 nM, 100 to 1000 nM and 100 to 1000 nM, respectively.

Regarding `O=c1[nH]c2c(N3CCNCC3)nc(-c3cnc4ccc(F)cn34)nc2n1C1CCOCC1` [Example 98, 2-(6-Fluoroimidazo[1,2-a]pyridin-3-yl)-6-(piperazin-1-yl)-9-(tetrahydro-2H-pyran-4-yl)-7H-purin-8(9H)-one], the IC50 in assay [2] was < 100 nM; in assay [1] it was > 1000 nM; in assay [3] it was < 100 nM.

For the origin of these results see patent US20130089512A1, “HETEROARYL IMIDAZOLONE DERIVATIVES AS JAK INHIBITORS” (priority 2010, published 2013).
